Test results reported in article PMC4066452 (Archives of biochemistry and biophysics, 2014).

Target: MtACS (Mycobacterium tuberculosis acetyl-CoA synthetase) (Mycobacterium tuberculosis, UniProt P9WQD1)
Assay: biochemical

Sequence of MtACS (Mycobacterium tuberculosis acetyl-CoA synthetase) (P9WQD1 2-651): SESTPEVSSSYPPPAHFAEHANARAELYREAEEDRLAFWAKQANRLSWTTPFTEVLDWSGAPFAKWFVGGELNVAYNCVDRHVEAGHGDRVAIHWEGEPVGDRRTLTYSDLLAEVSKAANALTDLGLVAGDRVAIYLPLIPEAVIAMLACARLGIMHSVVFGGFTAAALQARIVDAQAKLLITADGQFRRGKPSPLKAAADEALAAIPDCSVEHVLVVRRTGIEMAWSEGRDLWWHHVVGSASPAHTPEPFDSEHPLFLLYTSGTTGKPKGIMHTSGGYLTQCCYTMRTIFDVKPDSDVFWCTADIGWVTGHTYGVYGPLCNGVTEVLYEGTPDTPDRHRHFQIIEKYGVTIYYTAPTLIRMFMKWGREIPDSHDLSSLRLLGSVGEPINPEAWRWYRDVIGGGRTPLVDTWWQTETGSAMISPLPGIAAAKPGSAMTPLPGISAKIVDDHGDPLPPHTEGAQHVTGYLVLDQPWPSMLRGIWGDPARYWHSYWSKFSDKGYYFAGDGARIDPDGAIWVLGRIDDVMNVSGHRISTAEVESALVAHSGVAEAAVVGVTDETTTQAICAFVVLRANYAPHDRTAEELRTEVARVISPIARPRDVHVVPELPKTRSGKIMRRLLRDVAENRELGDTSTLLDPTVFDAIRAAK

Structure (SMILES): Nc1ncnc2c1ncn2[C@@H]1O[C@H](COP(=O)(O)CP(=O)(O)OP(=O)(O)O)[C@@H](O)[C@H]1O [AMPCPP]
- Ki: 5 ± 0.8 mM
